Results published in patent publication US20250345392A1, “ANNEXIN A1 LIQUID PHARMACEUTICAL COMPOSITION” (ResoTher Pharma A/S, priority 2022, published 2025).
Read-outs that look alike come from different tables or passages of the source. Ends that are not written are not given here.

Assay: 14-day repeat IV dose toxicity study with toxicokinetic evaluation on Day 1 and 14 in dogs
Type: in vivo, beagle dogs
Conditions: dog; for C0 / AUC(0-inf) / clearance / half-life / Vd: in vivo
Protocol: Peptide 1 in blood samples collected from animals used in the studies (rat and dog) has been measured by an LC-MS/MS method. Analysis of samples collected in the pharmacokinetic study in rats was performed prior to validation of the method. Prior to analysis of samples from the GLP toxicology studies, the method was validated according to GLP to ensure that it is selective, accurate, reproducible, and able to produce reliable results. The method was validated over the range from 0.075 to 25 μg/mL Peptide 1.
In the 14-day intravenous toxicity study in beagle dogs (see study description below), samples were collected from 3 male and 3 female animals per group dosed at 0 (Control), 1, 3 or 10 mg/kg/day at 2, 5, 10, 20 and 40 minutes after dosing on Days 1 and 14. Samples were analysed for levels of Peptide 1.

AMVSEFLKQAWFIENEEQEYVQTLKSSKGGPGSAVSPYPTFNPSSDV-NH2 [Peptide 1]
exposure (C(0) and AUCinf) versus dose (from 1 mg/kg to 10 mg/kg): increase proportional to dose level | C0 (1 mg/kg, Group 2 (1 mg/kg), range over sexes and Days 1 and 14): 4580 to 8580 ng/mL | AUC(0-inf) (1 mg/kg, Group 2 (1 mg/kg), range over sexes and Days 1 and 14, read-out: AUCinf): 450 to 620 ng·h/mL | C0 (3 mg/kg, Group 3 (3 mg/kg), range over sexes and Days 1 and 14): 12500 to 20000 ng/mL | AUC(0-inf) (3 mg/kg, Group 3 (3 mg/kg), range over sexes and Days 1 and 14, read-out: AUCinf): 1420 to 1970 ng·h/mL | C0 (10 mg/kg, Group 4 (10 mg/kg), range over sexes and Days 1 and 14): 26400 to 58300 ng/mL | AUC(0-inf) (10 mg/kg, Group 4 (10 mg/kg), range over sexes and Days 1 and 14, read-out: AUCinf): 3930 to 4680 ng·h/mL | clearance (all groups, read-out: clearance): 27.4 to 42.7 mL/min/kg | half-life (all groups, read-out: elimination half-life): 4.66 to 6.59 min | C0 (iv, 1 mg/kg/day, IV 1.0 mg/kg/day, female, Day 1): 6990 ng/mL | AUC(0-inf) (iv, 1 mg/kg/day, IV 1.0 mg/kg/day, female, Day 1, read-out: AUC0-∞ (converted)): 537 ng·h/mL | clearance (iv, 1 mg/kg/day, IV 1.0 mg/kg/day, female, Day 1, read-out: Cl): 33.1 mL/min/kg | half-life (iv, 1 mg/kg/day, IV 1.0 mg/kg/day, female, Day 1, read-out: T1/2): 4.83 min | Vd (iv, 1 mg/kg/day, IV 1.0 mg/kg/day, female, Day 1, read-out: Vz): 0.232 L/kg | C0 (iv, 1 mg/kg/day, IV 1.0 mg/kg/day, female, Day 14): 8580 ng/mL | AUC(0-inf) (iv, 1 mg/kg/day, IV 1.0 mg/kg/day, female, Day 14, read-out: AUC0-∞ (converted)): 620 ng·h/mL | clearance (iv, 1 mg/kg/day, IV 1.0 mg/kg/day, female, Day 14, read-out: Cl): 27.4 mL/min/kg | half-life (iv, 1 mg/kg/day, IV 1.0 mg/kg/day, female, Day 14, read-out: T1/2): 4.66 min | Vd (iv, 1 mg/kg/day, IV 1.0 mg/kg/day, female, Day 14, read-out: Vz): 0.183 L/kg | C0 (iv, 1 mg/kg/day, IV 1.0 mg/kg/day, male, Day 1): 4580 ng/mL | AUC(0-inf) (iv, 1 mg/kg/day, IV 1.0 mg/kg/day, male, Day 1, read-out: AUC0-∞ (converted)): 450 ng·h/mL | clearance (iv, 1 mg/kg/day, IV 1.0 mg/kg/day, male, Day 1, read-out: Cl): 37.1 mL/min/kg | half-life (iv, 1 mg/kg/day, IV 1.0 mg/kg/day, male, Day 1, read-out: T1/2): 4.68 min | Vd (iv, 1 mg/kg/day, IV 1.0 mg/kg/day, male, Day 1, read-out: Vz): 0.251 L/kg | C0 (iv, 1 mg/kg/day, IV 1.0 mg/kg/day, male, Day 14): 6590 ng/mL | AUC(0-inf) (iv, 1 mg/kg/day, IV 1.0 mg/kg/day, male, Day 14, read-out: AUC0-∞ (converted)): 550 ng·h/mL | clearance (iv, 1 mg/kg/day, IV 1.0 mg/kg/day, male, Day 14, read-out: Cl): 31 mL/min/kg | half-life (iv, 1 mg/kg/day, IV 1.0 mg/kg/day, male, Day 14, read-out: T1/2): 6.59 min | Vd (iv, 1 mg/kg/day, IV 1.0 mg/kg/day, male, Day 14, read-out: Vz): 0.297 L/kg | C0 (iv, 3 mg/kg/day, IV 3.0 mg/kg/day, female, Day 1): 16100 ng/mL | AUC(0-inf) (iv, 3 mg/kg/day, IV 3.0 mg/kg/day, female, Day 1, read-out: AUC0-∞ (converted)): 1700 ng·h/mL | clearance (iv, 3 mg/kg/day, IV 3.0 mg/kg/day, female, Day 1, read-out: Cl): 30.1 mL/min/kg | half-life (iv, 3 mg/kg/day, IV 3.0 mg/kg/day, female, Day 1, read-out: T1/2): 5.7 min | Vd (iv, 3 mg/kg/day, IV 3.0 mg/kg/day, female, Day 1, read-out: Vz): 0.248 L/kg | C0 (iv, 3 mg/kg/day, IV 3.0 mg/kg/day, female, Day 14): 20000 ng/mL | AUC(0-inf) (iv, 3 mg/kg/day, IV 3.0 mg/kg/day, female, Day 14, read-out: AUC0-∞ (converted)): 1970 ng·h/mL | clearance (iv, 3 mg/kg/day, IV 3.0 mg/kg/day, female, Day 14, read-out: Cl): 25.9 mL/min/kg | half-life (iv, 3 mg/kg/day, IV 3.0 mg/kg/day, female, Day 14, read-out: T1/2): 6.13 min | Vd (iv, 3 mg/kg/day, IV 3.0 mg/kg/day, female, Day 14, read-out: Vz): 0.232 L/kg | C0 (iv, 3 mg/kg/day, IV 3.0 mg/kg/day, male, Day 1): 12500 ng/mL | AUC(0-inf) (iv, 3 mg/kg/day, IV 3.0 mg/kg/day, male, Day 1, read-out: AUC0-∞ (converted)): 1420 ng·h/mL | clearance (iv, 3 mg/kg/day, IV 3.0 mg/kg/day, male, Day 1, read-out: Cl): 35.9 mL/min/kg | half-life (iv, 3 mg/kg/day, IV 3.0 mg/kg/day, male, Day 1, read-out: T1/2): 6.01 min | Vd (iv, 3 mg/kg/day, IV 3.0 mg/kg/day, male, Day 1, read-out: Vz): 0.318 L/kg | C0 (iv, 3 mg/kg/day, IV 3.0 mg/kg/day, male, Day 14): 19900 ng/mL | AUC(0-inf) (iv, 3 mg/kg/day, IV 3.0 mg/kg/day, male, Day 14, read-out: AUC0-∞ (converted)): 1850 ng·h/mL | clearance (iv, 3 mg/kg/day, IV 3.0 mg/kg/day, male, Day 14, read-out: Cl): 27.4 mL/min/kg | half-life (iv, 3 mg/kg/day, IV 3.0 mg/kg/day, male, Day 14, read-out: T1/2): 6.05 min | Vd (iv, 3 mg/kg/day, IV 3.0 mg/kg/day, male, Day 14, read-out: Vz): 0.238 L/kg | C0 (iv, 10 mg/kg/day, IV 10 mg/kg/day, female, Day 1): 53400 ng/mL | AUC(0-inf) (iv, 10 mg/kg/day, IV 10 mg/kg/day, female, Day 1, read-out: AUC0-∞ (converted)): 4550 ng·h/mL | clearance (iv, 10 mg/kg/day, IV 10 mg/kg/day, female, Day 1, read-out: Cl): 37.1 mL/min/kg | half-life (iv, 10 mg/kg/day, IV 10 mg/kg/day, female, Day 1, read-out: T1/2): 5.41 min | Vd (iv, 10 mg/kg/day, IV 10 mg/kg/day, female, Day 1, read-out: Vz): 0.288 L/kg | C0 (iv, 10 mg/kg/day, IV 10 mg/kg/day, female, Day 14): 58300 ng/mL | AUC(0-inf) (iv, 10 mg/kg/day, IV 10 mg/kg/day, female, Day 14, read-out: AUC0-∞ (converted)): 4570 ng·h/mL | clearance (iv, 10 mg/kg/day, IV 10 mg/kg/day, female, Day 14, read-out: Cl): 36.7 mL/min/kg | half-life (iv, 10 mg/kg/day, IV 10 mg/kg/day, female, Day 14, read-out: T1/2): 5.9 min | Vd (iv, 10 mg/kg/day, IV 10 mg/kg/day, female, Day 14, read-out: Vz): 0.312 L/kg | C0 (iv, 10 mg/kg/day, IV 10 mg/kg/day, male, Day 1): 26400 ng/mL | AUC(0-inf) (iv, 10 mg/kg/day, IV 10 mg/kg/day, male, Day 1, read-out: AUC0-∞ (converted)): 3930 ng·h/mL | clearance (iv, 10 mg/kg/day, IV 10 mg/kg/day, male, Day 1, read-out: Cl): 42.7 mL/min/kg | half-life (iv, 10 mg/kg/day, IV 10 mg/kg/day, male, Day 1, read-out: T1/2): 5.09 min | Vd (iv, 10 mg/kg/day, IV 10 mg/kg/day, male, Day 1, read-out: Vz): 0.318 L/kg | C0 (iv, 10 mg/kg/day, IV 10 mg/kg/day, male, Day 14): 51400 ng/mL | AUC(0-inf) (iv, 10 mg/kg/day, IV 10 mg/kg/day, male, Day 14, read-out: AUC0-∞ (converted)): 4680 ng·h/mL | clearance (iv, 10 mg/kg/day, IV 10 mg/kg/day, male, Day 14, read-out: Cl): 36.6 mL/min/kg | half-life (iv, 10 mg/kg/day, IV 10 mg/kg/day, male, Day 14, read-out: T1/2): 6 min | Vd (iv, 10 mg/kg/day, IV 10 mg/kg/day, male, Day 14, read-out: Vz): 0.316 L/kg
